According to patent publication US20260285850A1, “SUBSTITUTED OXAZOLIDINONES AND IMIDAZOLINONES AS HERBICIDES” (FMC CORPORATION, priority 2023, published 2026):

Assays:
Assay type in all cases: in vivo
[1] = tested on: barnyardgrass (Echinochloa crus-galli); assay: Test A preemergence soil spray, visual injury rating 0-100; details: 10 days, 0 = no effect, 100 = complete control
Method in brief: (§1)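 Compound in a non-phytotoxic, surfactant-containing solvent is applied either as a directed soil spray before seedlings emerge or onto emerged plants 2-10 cm tall; pots hold a loam-sand blend. Plants grow 10 days under greenhouse conditions and are rated by eye against untreated controls (0 no effect, 100 complete control).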

[2] = tested on: ragweed (common ragweed, Ambrosia artemisiifolia); assay: as above; details: 10 days, 0 = no effect, 100 = complete control
Method in brief: as §1

[3] = tested on: wheat (Triticum aestivum); assay: as above; details: 10 days, 0 = no effect, 100 = complete control
Method in brief: as §1

[4] = tested on: ryegrass, Italian (italian ryegrass, Lolium multiflorum); assay: as above; details: 10 days, 0 = no effect, 100 = complete control
Method in brief: as §1

[5] = tested on: palmer (palmer amaranth, palmer pigweed, Amaranthus palmeri); assay: as above; details: 10 days, 0 = no effect, 100 = complete control
Method in brief: as §1

[6] = tested on: kochia (Bassia scoparia); assay: as above; details: 10 days, 0 = no effect, 100 = complete control
Method in brief: as §1

[7] = tested on: green foxtail (Setaria viridis); assay: as above; details: 10 days, 0 = no effect, 100 = complete control
Method in brief: as §1

[8] = tested on: corn (Zea mays); assay: as above; details: 10 days, 0 = no effect, 100 = complete control
Method in brief: as §1

[9] = tested on: blackgrass (Alopecurus myosuroides); assay: as above; details: 10 days, 0 = no effect, 100 = complete control
Method in brief: as §1

[10] = tested on: oat, wild (wild oat, Avena fatua); assay: as above; details: 10 days, 0 = no effect, 100 = complete control
Method in brief: as §1

[11] = tested on: soybean (Glycine max); assay: as above; details: 10 days, 0 = no effect, 100 = complete control
Method in brief: as §1

[12] = tested on: sedge, umbrella (small-flower umbrella sedge, Cyperus difformis); assay: Test B flooded paddy test, visual plant response rating 0-100; details: 250 g ai/ha, Flood, applied to paddy water, evaluated after 13 days
Method in brief: (§2)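 Treatment occurs at the 2-leaf stage by adding compound to floodwater standing 3 cm above the soil, a level kept for the whole test. Plants stay in the greenhouse 13 days before visual comparison with controls.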

[13] = tested on: rice (Oryza sativa); assay: as above; details: 250 g ai/ha, Flood, applied to paddy water, evaluated after 13 days
Method in brief: as §2

[14] = tested on: ducksalad (Heteranthera limosa); assay: as above; details: 250 g ai/ha, Flood, applied to paddy water, evaluated after 13 days
Method in brief: as §2

[15] = tested on: barnyardgrass (Echinochloa crusgalli); assay: as above; details: 250 g ai/ha, Flood, applied to paddy water, evaluated after 13 days
Method in brief: as §2

[16] = tested on: barnyardgrass (Echinochloa crus-galli); assay: Test A postemergence application, visual injury rating 0-100; details: 10 days
Method in brief: as §1

[17] = tested on: ragweed (common ragweed, Ambrosia artemisiifolia); assay: as above; details: 10 days
Method in brief: as §1

[18] = tested on: wheat (Triticum aestivum); assay: as above; details: 10 days
Method in brief: as §1

[19] = tested on: galium (catchweed bedstraw, Galium aparine); assay: as above; details: 10 days
Method in brief: as §1

[20] = tested on: ryegrass, Italian (italian ryegrass, Lolium multiflorum); assay: as above; details: 10 days
Method in brief: as §1

[21] = tested on: palmer (palmer amaranth, palmer pigweed, Amaranthus palmeri); assay: as above; details: 10 days
Method in brief: as §1

[22] = tested on: kochia (Bassia scoparia); assay: as above; details: 10 days
Method in brief: as §1

[23] = tested on: green foxtail (Setaria viridis); assay: as above; details: 10 days
Method in brief: as §1

[24] = tested on: corn (Zea mays); assay: as above; details: 10 days
Method in brief: as §1

[25] = tested on: blackgrass (Alopecurus myosuroides); assay: as above; details: 10 days
Method in brief: as §1

[26] = tested on: oat, wild (wild oat, Avena fatua); assay: as above; details: 10 days
Method in brief: as §1

[27] = tested on: horseweed (Erigeron canadensis); assay: as above; details: 10 days
Method in brief: as §1

[28] = tested on: soybean (Glycine max); assay: as above; details: 10 days
Method in brief: as §1

[29] = 31 g ai/ha, postemergence, 0 = no effect, 100 = complete control
[30] = Postemergence, 125 g ai/ha, 0 is no effect, 100 is complete control

## CC(C)OC(=O)C1C=CC(NC(=O)C2(C)CN(c3cc(F)cc(Cl)c3)C(=O)O2)C1 (stereo not shown) [Compound 4]
[1]; 31 g ai/ha
  Barnyardgrass plant response rating (0-100): 50
[1]; 125 g ai/ha
  Barnyardgrass plant response rating (0 to 100 scale): 100
[2]; 31 g ai/ha
  Ragweed plant response rating (0-100): 0
[2]; 125 g ai/ha
  Ragweed plant response rating (0 to 100 scale): 0
[3]; 31 g ai/ha
  Wheat plant response rating (0-100): 40
[3]; 125 g ai/ha
  Wheat plant response rating (0 to 100 scale): 90
[4]; 31 g ai/ha
  Ryegrass, Italian plant response rating (0-100): 50
[4]; 125 g ai/ha
  Ryegrass, Italian plant response rating (0 to 100 scale): 80
[5]; 31 g ai/ha
  Amaranth, Palmer plant response rating (0-100): 30
[5]; 125 g ai/ha
  Amaranth, Palmer plant response rating (0 to 100 scale): 100
[6]; 31 g ai/ha
  Kochia plant response rating (0-100): 40
[6]; 125 g ai/ha
  Kochia plant response rating (0 to 100 scale): 90
[7]; 31 g ai/ha
  Foxtail, Green plant response rating (0-100): 0
[7]; 125 g ai/ha
  Foxtail, Green plant response rating (0 to 100 scale): 100
[8]; 31 g ai/ha
  Corn plant response rating (0-100): 40
[8]; 125 g ai/ha
  Corn plant response rating (0 to 100 scale): 70
[9]; 31 g ai/ha
  Blackgrass plant response rating (0-100): 0
[9]; 125 g ai/ha
  Blackgrass plant response rating (0 to 100 scale): 60
[10]; 31 g ai/ha
  Oat, Wild plant response rating (0-100): 50
[10]; 125 g ai/ha
  Oat, Wild plant response rating (0 to 100 scale): 80
[11]; 31 g ai/ha
  Soybean plant response rating (0-100): 0
[11]; 125 g ai/ha
  Soybean plant response rating (0 to 100 scale): 70
[12]
  Plant response rating, Sedge, Umbrella (0 to 100 scale, 0 is no effect and 100 is complete control): 95
[13]
  Plant response rating, Rice (0 to 100 scale, 0 is no effect and 100 is complete control): 20
[14]
  Plant response rating, Ducksalad (0 to 100 scale, 0 is no effect and 100 is complete control): 70
[15]
  Plant response rating, Barnyardgrass (0 to 100 scale, 0 is no effect and 100 is complete control): 90
[16]; [29]
  Barnyardgrass plant response rating (0-100): 100
[16]; [30]
  Barnyardgrass plant response rating (0 to 100 scale): 100
[17]; [29]
  Ragweed plant response rating (0-100): 60
[17]; [30]
  Ragweed plant response rating (0 to 100 scale): 80
[18]; [29]
  Wheat plant response rating (0-100): 90
[18]; [30]
  Wheat plant response rating (0 to 100 scale): 90
[19]; [29]
  Galium plant response rating (0-100): 80
[19]; [30]
  Galium plant response rating (0 to 100 scale): 90
[20]; [29]
  Ryegrass, Italian plant response rating (0-100): 60
[20]; [30]
  Ryegrass, Italian plant response rating (0 to 100 scale): 90
[21]; [29]
  Amaranth, Palmer plant response rating (0-100): 50
[21]; [30]
  Amaranth, Palmer / Pigweed, Palmer plant response rating (0 to 100 scale): 90
[22]; [29]
  Kochia plant response rating (0-100): 70
[22]; [30]
  Kochia plant response rating (0 to 100 scale): 80
[23]; [29]
  Foxtail, Green plant response rating (0-100): 90
[23]; [30]
  Foxtail, Green plant response rating (0 to 100 scale): 90
[24]; [29]
  Corn plant response rating (0-100): 90
[24]; [30]
  Corn plant response rating (0 to 100 scale): 100
[25]; [29]
  Blackgrass plant response rating (0-100): 80
[25]; [30]
  Blackgrass plant response rating (0 to 100 scale): 90
[26]; [29]
  Oat, Wild plant response rating (0-100): 90
[26]; [30]
  Oat, Wild plant response rating (0 to 100 scale): 90
[27]; [29]
  Horseweed plant response rating (0-100): 0
[27]; [30]
  Horseweed plant response rating (0 to 100 scale): 70
[28]; [29]
  Soybean plant response rating (0-100): 80
[28]; [30]
  Soybean plant response rating (0 to 100 scale): 80
